Data set [1] in a line: Chemical stability (loss of diazeniumdiolate) in phosphate buffer. The class given is physicochemical. The method, then: They varied only in the nitrogen substituent of the amino acid, i.e. free amine (1), acetyl (2) and pivaloyl (3) groups. Their chemical stability was evaluated in phosphate buffer at different pH's over a 30 minute period (Table 11).
A short description of data set [2]: Enzymatic hydrolysis in liver microsomal preparations (LC-MS). The class given is in vitro ADME. The settings on record: for Time to complete hydrolysis (cleavage of the diazeniumdiolate): liver microsomal preparations. The method, then: The sensitivity of the prodrug 3 towards enzymatic hydrolysis was evaluated by LC-MS. Liver and intestinal microsomal preparations were used. […] However, these rates were slower than the enzymatic hydrolysis rates determined for the conversion of 1→4 and 2→5 (complete hydrolysis observed in 10 and 30 minutes respectively in liver microsomal preparations).

Data set [3] has as its system cardiac tissue prostacyclin (PGI2) to thromboxane A2 (TXB2) ratio. Description: Cardiac tissue prostacyclin to thromboxane ratio. The settings on record: male Wistar rats; for PGI2/TXA2 ratio comparison (in words): cardiac tissue; for Cardiac Tissue PGI2/TXB2, Mean: oral gavage, heart removed 6 hours after dosing. It is filed as in vivo, rat. An excerpt: (§1) Myocardial infarction and ischemic events in high risk patients led one of the most popular COX-2 inhibitors to its demise (Bresalier et al., 2005). Non-selective NSAIDS may also cause similar problems due to their ability to inhibit COX-2. […] Adenosine diphosphate (ADP) generation is an indicator of myocardial infarction which has no connection with the arachidonic acid cascade (Borna et al., 2005). […] Long term NSAID use has been linked to kidney damage and hypertension (Zafirovska et al., 1993). […] This was associated with an increase in the urine the ratio of alanine-amino-peptidase (AAP) and creatinine.
(§2) Table 1 is a summary of the protocol for a study which was conducted in male Wistar rats weighing 275-300 grams. The animals were allowed to acclimatize for at least five days prior to the commencement of the study. The study protocol was approved by the local animal ethics committee.
All rats were euthanized by removal of the heart 6 hours after initial dosing, following final blood collections. Immediately after terminal blood collections were complete, the thorax was opened and the heart removed. The heart was cut in half longitudinally. Half of the heart was placed in formalin for histological examination. The other half was quickly rinsed in saline and then freeze-clamped (crushed between the jaws of a pair of modified tongs, cooled by liquid nitrogen). An entire kidney was freeze-clamped. The other kidney was left in situ for examination by the pathologist. Freeze-clamped tissues were wrapped in labeled aluminum foil and stored in liquid nitrogen until they could be transferred to a −80° C. freezer. Freeze-clamped tissues were shipped on dry ice to NOVOKIN for analysis.

Data set [4] can be described thus: Serum nitrate concentration (NO release) after oral dosing. The settings on record: male Wistar rats, oral gavage, at 6 hours. The class given is in vivo, rat. The method, then: as §2
(§3) The animals were fasted overnight prior to test substance administration. The test substance was administered orally by gavage on the morning of the study day. All test animals had blood collected during the test period in both EDTA (ethylenediaminetetraacetic acid) tubes and SST (Serum Separator Tubes) at 1, 3 and 6 hours after dosing. Blood was collected into EDTA tubes only at 1 and 3 hours by tail tip amputation. Volume of blood collected was between 0.5 and 1 mL at each of these collections. The final collection was by puncture of the abdominal vena cava under isoflurane general anesthesia. Final blood collection was targeted as follows: 1st EDTA #1—1.5 mL; 2nd SST—1.5 mL; 3rd EDTA #2—as much as possible.
EDTA samples were centrifuged, and the plasma portion was collected and frozen at −80° C. SST samples were incubated at 37° C. for approximately 45 minutes, centrifuged, and the serum was collected and frozen at −80° C. until analysis.

The test system of data set [5] is male Wistar rats. The data set is described as follows: Urine N-acetylglucosaminidase to creatinine ratio (distal tubule toxicity). The settings on record: oral gavage, urine collected for 6 hours. The class given is in vivo, rat. The method, then: as §2
(§4) All test animals, housed in metabolic cages, had urine collected over wet ice for 6 hours after dosing. Aliquots of the urine from each animal were collected to determine creatinine concentration. The remainder of the urine was centrifuged at 1000 g for 10 minutes. The supernatant was collected and mixed with analytical grade ethylene glycol at a rate of 0.4 mL ethylene glycol per 1 mL urine supernatant. The ethylene glycol/urine mixture was stored at −80° C. until analysis.

The subject of data set [6] is male Wistar rats. Description: Gastric ulcer index after oral dosing. The settings on record: for Ulcer Indices, Mean: oral gavage, naproxen 250 mg/kg or molar equivalent (ROF 250 mg/kg), 6 h after dosing, mean aggregate gastric ulcer length; for Ulcerogenicity (in words): oral, 6 h. The class given is in vivo, rat. The method, then: as §2, §3
Each animal from all groups underwent a full necropsy under the supervision of a board certified veterinary pathologist. The stomach of each rat was cut along the greater curvature, contents removed into a polypropylene (Falcon) tube, the mucosa rinsed with saline and any obvious ulcers or erosions were measured along the longest axis. This measurement was recorded for each ulcer or erosion observed in each stomach. The falcon tubes and their contents were frozen at −80° C. and shipped to Novokin on dry ice for analysis.
The aggregate length of all gastric ulcers found in a given animal was calculated. The mean aggregate ulcer length across animals in a group was calculated. This mean value was reported as the ulcer index for that group.
The ulcer index of each modified drug was compared with the ulcer index of its associated parent drug and the controls using analysis of variance and Duncan's multiple range test for pairwise comparisons. Statistical analysis was done using SAS® (SAS Institute Inc., Cary, N.C.).

Data set [7] concerns male Wistar rats. Description: Urine alanine aminopeptidase to creatinine ratio (proximal tubular kidney damage). It is filed as in vivo, rat. The settings on record: for AAP/Cr (urine alanine aminopeptidase to creatinine), Mean: oral gavage, urine collected for 6 hours.
Source text: as §1, §2, §4

In the case of `COc1ccc2cc(C(C)C(=O)OC3CNC(C(=O)OCON=[N+]([O-])N(C)C)C3)ccc2c1` (centres unmarked) [Compound 1], the “Chemical stability (in words)” value in data set [1] (pH range 2.5-7.0, 30 minute period) is given as “underwent rapid degradation”. In data set [2], the “Time to complete hydrolysis (cleavage of the diazeniumdiolate)” value turned out to be 10 min.

Take `COc1ccc2cc(C(C)C(=O)OC3CC(C(=O)OCON=[N+]([O-])N(C)C)N(C(C)=O)C3)ccc2c1` (centres unmarked) [Compound 2]: the “Stability (loss of diazeniumdiolate), pH 2.5” value in data set [1] (30 min, pH 2.5) is “✓”. In data set [1] (30 min, pH 5.0), the “Stability (loss of diazeniumdiolate), pH 5.0” value is “✓”. Besides, the “Chemical stability (in words)” value in data set [1] (pH 2.5-5.0, 30 minute period) was “stable”; in data set [1] (pH 7.0, 30 minute period), “much slower rate of decomposition”. Moreover, the “Time to complete hydrolysis (cleavage of the diazeniumdiolate)” value in data set [2] turned out to be 30 min.

Regarding `COc1ccc2cc(C(C)C(=O)OCOC(=O)CCC(NC(C)=O)C(=O)OCOC(=O)C(C)c3ccc4cc(OC)ccc4c3)ccc2c1` (centres unmarked) [Compound 9], the “Time to complete hydrolysis (initial cleavage of both esters)” value in data set [2] (liver microsomes) was determined as 30 min.

Turning to `COc1ccc2cc(C(C)C(=O)OCON=[N+]([O-])N(C)C)ccc2c1` (centres unmarked) [DMA-NO-NAP, dimethylamino-diazeniumdiolate-naproxen], in data set [3], the “PGI2/TXA2 ratio comparison (in words)” value is given as “achieving statistical significance (p<0.05)” and the “Cardiac Tissue PGI2/TXB2, Mean” value is reported as 5.157. Moreover, in data set [4], the “Serum Nitrate Concentrations, Mean” value is given as 768.000. In the data set on male Wistar rats [5], the “Urine NAG/Cr values, Mean” value came to 20.403. For the same compound, in the data set on male Wistar rats [6], the “Ulcer Indices, Mean” value is 1.695 and the “Ulcerogenicity (in words)” value was “somewhat less ulcerogenic”. Moreover, in the data set with male Wistar rats [7], the “AAP/Cr (urine alanine aminopeptidase to creatinine), Mean” value amounted to 132.412.

For the compound `CS(=O)(=O)c1ccc(C2=C(c3ccccc3)C(=O)OC2)cc1` [ROF, Rofecoxib], in data set [3], the “PGI2/TXA2 ratio comparison (in words)” value was “lower ratios than vehicle” and the “Cardiac Tissue PGI2/TXB2, Mean” value is 2.765. In addition, the “Serum Nitrate Concentrations, Mean” value in data set [4] is 55.818. The “Urine NAG/Cr values, Mean” value with male Wistar rats [5] amounted to 24.176. Besides, in the data set on male Wistar rats [6], the “Ulcer Indices, Mean” value was 0.000 and the “Ulcerogenicity (in words)” value is given as “not significantly different from vehicle”. In the data set with male Wistar rats [7], the “Urine AAP/creatinine ratio change (in words)” value is “did cause an increase” and the “AAP/Cr (urine alanine aminopeptidase to creatinine), Mean” value is 538.367.
